Values quoted from earlier work, collected in patent US20220387454A1, “NUTRITIONAL COMPOSITION FOR VISUAL FUNCTION” (OMNIACTIVE HEALTH TECHNOLOGIES LIMITED, priority 2019, published 2022).

Test system: patients with dry eye syndrome (DES) refractory to conventional treatment with vitamin D deficiency
Conditions: intramuscular 200,000 IU, p<0.05

C=C1CC[C@H](O)C/C1=C/C=C1\CCC[C@]2(C)[C@@H]([C@H](C)CCCC(C)C)CC[C@@H]12 [cholecalciferol]
Eyelid margin hyperemia (2, 6, and 10 weeks): showed improvement | Severity of symptoms (2, 6, and 10 weeks): showed improvement | Tear break-up time (TBUT) (2 and 6 weeks vs pre-treatment): showed an improvement | Tear secretion test (2 and 6 weeks vs pre-treatment): showed an improvement | Fluorescein staining score (FSS) (2 weeks vs pre-treatment): decreased | Ocular surface disease index (OSDI) (2 weeks vs pre-treatment): decreased | Visual analogue pain score (VAS) (2 weeks vs pre-treatment): decreased
